Experimental data published in PubChem BioAssay AID2305 (GlaxoSmithKline (GSK), 2010).
pIC50: −log10 of the molar value.

System: P. falciparum 3D7 growth, pLDH absorbance
Assay: blood-stage malaria parasite growth potency – strain 3D7, dose response (AID 2305)

## O=C(NCCN1CCCCC1)c1ccc(CNC(=O)c2ccc(O)c(-c3cccc(C(F)(F)F)c3)c2)cc1
  pIC50: 6.05

## CC(C)NCc1cccc(-c2ccc(NC(=O)c3ccc(F)cc3)cc2)c1
  pIC50: 6.07

## CCCCCN1CCCCC(NS(=O)(=O)c2ccc(C(=O)Nc3ccc(C(F)(F)F)cc3)cc2)C1 (stereo unspecified)
  pIC50: 6.11

## Cc1ccc2c(OCCN3CCC(Cc4ccc5c(c4)NC(=O)CO5)CC3)cc(F)cc2n1
  pIC50: 6.12

## Cc1cc(NC(=O)NCCN2CCC(NS(=O)(=O)c3ccc(C(F)(F)F)cc3)C2)c2ccccc2n1 (stereo unspecified)
  pIC50: 6.19

## C[C@H](NC(=O)c1c(OC2CN(C(c3ccccc3)c3ccccc3)C2)c(-c2ccccc2)nc2ccccc12)C1CCCCC1
  pIC50: 6.01

## CCN(CC)CCN(Cc1ccc(-c2ccc(C(F)(F)F)cc2)cc1)C(=O)Cn1c(CCc2cc(F)cc(F)c2F)nc(=O)c2ccccc21
  pIC50: 6.12

## Cc1cccc2[nH]c(-c3ccc(-c4cccc(CN5CCC(CCN6CCCCC6)CC5)c4)s3)nc12
  pIC50: 6.85

## Nc1c2nc(-c3c(F)cccc3Cl)[nH]c(=O)c2nc(=O)n1-c1ccccc1
  pIC50: 6.17

## Cc1sc(C)c(C(F)(F)F)c1CNCCCNc1cc(=O)c2ccccc2[nH]1
  pIC50: 5.96

## NC(=O)c1ccccc1Nc1nc(Nc2ccn[nH]2)ncc1Cl
  pIC50: 6.02

## Cc1[nH]c(C)c(-c2ccc(C(F)(F)F)cc2)c(=O)c1Br
  pIC50: 6.85

## Cc1cccc2[nH]c(-c3ccc(-c4ccc(CN5CCN(CC6CCCN(C)C6)CC5)cc4)s3)nc12 (stereo unspecified)
  pIC50: 6.85

## Cc1ccc2[nH]c3c(NCCCN4CCOCC4)ncnc3c2c1
  pIC50: 6.03

## CN(C)CCC(O)C=C(c1ccc(Cl)cc1)c1ccc(Cl)cc1 (stereo unspecified)
  pIC50: 6.02

## CCOc1cc(C)ccc1N1CCN(CCCCNC(=O)c2ccc(NC(=O)c3ccc(Cl)cc3)cc2)CC1
  pIC50: 6.19

## Cc1ccc2nc(C)cc(NN=Cc3ccccc3Cl)c2c1
  pIC50: 6.12

## O=C(NC1CC1)c1ccc2cc(C(=O)N3Cc4ccccc4C(c4ccccc4)C3)ccc2c1 (stereo unspecified)
  pIC50: 6.04

## COc1ccc(NC(=O)N2CCN(CCCCCNC(=O)/C=C/c3ccc(C(F)(F)F)cc3)CC2)cc1Cl
  pIC50: 6.07

## O=[N+]([O-])c1ccc2nc(Nc3cccc(C(F)(F)F)c3)c(Nc3cccc(C(F)(F)F)c3)nc2c1
  pIC50: 6.32

## CC(Cc1ccc(CNC(=O)NCc2ccc(CC(C)NCCc3cccc(Cl)c3)cc2)cc1)NCCc1cccc(Cl)c1 (stereo unspecified)
  pIC50: 6.16

## COc1ccc2nccc([C@@H](O)CN3CCC(NC(=O)C(c4ccsc4)N4CCN(c5ccccc5OC)CC4)CC3)c2c1 (stereo partly specified)
  pIC50: 6.08

## COc1c(C2CCN(CCCCNC(=O)c3cc(-c4ccc(Cl)cc4)sc3C)CC2)ccc2c1CCCC2
  pIC50: 6.20

## CCc1cn2c3c(cc(C(=O)N[C@@H](Cc4cccc(Cl)c4)[C@H](O)CNC4CC4)cc13)N(C)S(=O)(=O)CC2
  pIC50: 6.82

## CNCCNCc1cccc(-c2ccc(-c3nc4c(C)cccc4[nH]3)cc2)c1
  pIC50: 6.10

## CC(=O)Nc1cc(C(=O)Nc2cccc(-c3cccc(-c4nc5c(C)cccc5[nH]4)c3)c2)ccc1C
  pIC50: 6.48

## C[C@H](Nc1c(Nc2ccc3[nH]ccc3c2)c(=O)c1=O)C1CCCCC1
  pIC50: 6.68

## COc1ccc2nc(-c3ccccc3)cc(NCCCNc3cc(-c4ccccc4)nc4ccc(OC)cc34)c2c1
  pIC50: 6.92

## OC(CNc1ccnc(Nc2cccc(CCN3CCOCC3)c2)n1)c1ccccc1 (stereo unspecified)
  pIC50: 6.23

## O=C(/C=C/c1ccc(Cl)c(Cl)c1)NCCCCCCN1CCCN(C(=O)Nc2ccc(Cl)c(Cl)c2)CC1
  pIC50: 6.17

## O=C(Nc1ccc(OC(F)(F)F)cc1)NC1CCN(c2ccnc3ccccc23)C1 (stereo unspecified)
  pIC50: 6.62

## COc1ccc(C(=O)NCc2ccccc2-c2ccc(C(C)(C)C)cc2)cc1O
  pIC50: 7.00

## Cc1cc2nc(-c3ccc(C(=O)NCc4ccc(Cl)c(Cl)c4)cc3)[nH]c2cc1C
  pIC50: 6.08

## Cc1cc(-c2cccc(CNC3CCN(C)CC3)c2)ccc1S(=O)(=O)NCc1ccccc1
  pIC50: 6.09

## CC(=O)Nc1ccc(CNCCc2ccc(NC(=O)c3cc(Cl)cc(Cl)c3)cc2)cc1
  pIC50: 6.17

## C=CCc1cc(Cc2cnc(N)nc2N)cc(CCC)c1O
  pIC50: 6.00

## CS(=O)(=O)CCOCc1ccc(-c2ccc3ncnc(Nc4ccc(OCc5cccc(F)c5)c(Cl)c4)c3c2)o1
  pIC50: 6.10

## COc1cc(Nc2nccc(N3CCC(NC(=O)C4COc5ccccc5O4)C3)n2)cc(OC)c1OC (stereo unspecified)
  pIC50: 6.04

## COc1c(CN2CCCC2)cccc1-c1cc2c(-c3ccc(C(=O)O)c(C(C)C)c3)ccnc2[nH]1
  pIC50: 6.36

## CCCCN1CCN(Cc2cccc(NC(=O)c3ccc(Cl)c(Cl)c3)c2)CC1
  pIC50: 5.94

## COC(=O)c1ccc(CC(C)NCC(O)c2ccc3ccc4ccccc4c3c2)cc1 (stereo unspecified)
  pIC50: 6.66

## O=C(c1ccco1)N1CCN(c2ccc([N+](=O)[O-])c(NC3CC3)c2)CC1
  pIC50: 6.12

## FC(F)(F)c1cc(CNCCCNc2nc3ccncc3[nH]2)ccc1Cl
  pIC50: 6.00

## CCOC(=O)c1[nH]c(-c2cc(Cl)nc(Cl)c2)nc1NC(=S)NCc1ccc(NS(C)(=O)=O)cc1
  pIC50: 6.05

## COc1ccc(C2CCN(CCCCNC(=O)c3ccc(NC(=O)c4ccc(Cl)cc4)cc3)CC2)cc1Cl
  pIC50: 6.08

## CCC(C)c1ccc(NC(=O)c2ccc(S(=O)(=O)Nc3ccc(OC)c(N4CCN(CC5CC5)CC4)c3)cc2)cc1 (stereo unspecified)
  pIC50: 6.15

## Cc1ccc(CNC(=O)[C@H](CCCN)Nc2cc(C)nc(Nc3ccccc3)n2)cc1
  pIC50: 5.89

## O=C(NC1CCCCC1)N(CCCn1ccnc1)Cc1csc(-c2ccc(CNCc3ccccc3)cc2)n1
  pIC50: 6.08

## CC(=O)Nc1ccc(C(=O)Nc2cccc(-c3ccc(-c4nc5ccccc5[nH]4)cc3)c2)cn1
  pIC50: 6.68

## Cc1ccc(-c2noc(=O)n2CC(=O)Nc2ccccc2-c2ccccc2)cc1
  pIC50: 6.09

## O=C1NC(c2ccccc2)C2(CCN(CC(O)COc3cccc4ncccc34)CC2)O1 (stereo unspecified)
  pIC50: 6.13

## NC1CCN(Cc2cccc(-c3ccc(-c4nc5ccccc5[nH]4)cc3)c2)C1 (stereo unspecified)
  pIC50: 6.08

## CC(Oc1ccc(Cl)cc1)C(=O)Nc1cc(C(F)(F)F)ccc1-n1cncn1 (stereo unspecified)
  pIC50: 6.82

## CC(C)CC(C)NC(=O)C1Cc2c([nH]c3cc(Cl)ccc23)C2(CCN(CCc3ccccc3)CC2)N1 (stereo unspecified)
  pIC50: 6.09

## O=C(Nc1ccccc1-c1nc2ccccc2s1)C(Cl)(Cl)Cl
  pIC50: 6.19

## COc1ccc(CC(=O)Nc2ccc(Nc3nc(C)cc(N4CCCC4)n3)cc2)cc1
  pIC50: 5.95

## COc1ccccc1C1CCN(C2CCC(NC(=O)/C=C/c3cc(F)c(F)cc3F)CC2)CC1 (stereo unspecified)
  pIC50: 5.80

## CN(C)c1ccc(NC2=NC(C)(C)N=C(N)N2)cc1
  pIC50: 6.66

## COc1cc2nc(N3CCN(c4cc(C)ccc4C)CC3)nc(N)c2cc1OC
  pIC50: 6.07

## CC(Oc1ccc(Cl)cc1)C(=O)NCCC1CCN(CCCCCNC(=O)/C=C/c2ccc(Cl)c(Cl)c2)CC1 (stereo unspecified)
  pIC50: 5.99

## Cc1cc(C(=O)NC2CCN(CC3(c4ccc(Cl)cc4)CCC3)CC2)on1
  pIC50: 7.05

## Cc1cc(F)ccc1-c1nc(NCC(O)CNCCc2ccccc2)nc2c1ccc(=O)n2-c1c(F)cccc1F (stereo unspecified)
  pIC50: 6.27

## COc1cccc2c(NN=Cc3ccccc3F)ccnc12
  pIC50: 6.03

## CC(C)c1ccc(OCC(O)CN(CCN2CCOCC2)C(=O)Nc2ccc(Br)cc2)cc1 (stereo unspecified)
  pIC50: 6.14

## CCCCC#Cc1cnc2nc(N)[nH]c(=O)c2n1
  pIC50: 6.19

## Fc1ccccc1COc1ccc(Nc2ncnc3ccc(-c4nnc(C(F)(F)F)o4)cc23)cc1Cl
  pIC50: 6.14

## O=C(/C=C/c1ccc(Cl)c(Cl)c1)NCCC1CCC(N2CCC(c3c[nH]c4ccc(O)cc34)CC2)CC1 (stereo unspecified)
  pIC50: 6.12

## C[C@H](Cc1ccc(OCCCCCCOc2ccccc2)cc1)NC[C@@H](O)c1cc(Br)no1
  pIC50: 6.06

## CC(C)c1ccc(NC(=O)c2ccc(CN3CCCN(Cc4cccc(Cl)c4)CC3)cc2)cc1
  pIC50: 5.94

## CC[C@H]1CN2CC[C@H]1C[C@H]2[C@H](O)c1ccnc2ccc(C#N)cc12
  pIC50: 6.82

## O=C(CCc1cnc[nH]1)Nc1cccc(-c2ccc(-c3nc4ccc(F)cc4[nH]3)s2)c1
  pIC50: 6.25

## O=C(Nc1ccc(Cl)cc1)Nc1cccc(-c2ccc(-c3nc4ccc(F)cc4[nH]3)cc2)c1
  pIC50: 7.30

## FC(F)(F)c1ccc2nc(-c3cccc(-c4cccc(CNCc5cnn(-c6ccccc6)n5)c4)c3)[nH]c2c1
  pIC50: 6.26

## O=C(NC1CCCCC1)N(Cc1cccc(-c2ccc(CNCCc3ccccc3)cc2)c1)C1CCN(Cc2ccccc2)CC1
  pIC50: 6.19

## O=[N+]([O-])c1ccccc1C=NNc1c2c(nc3ccccc13)CCCC2
  pIC50: 6.51

## O=C(Nc1ccccc1)N(Cc1cccc(-c2ccc(CNC3CCCC3)cc2)c1)C1CCN(Cc2ccccc2)CC1
  pIC50: 6.41

## COc1cc(C(=O)N2[C@@H](c3nccs3)[C@@H](C(=O)N(OC)C(C)c3ccccc3)C[C@@]2(CC(C)C)C(=O)OC(C)(C)C)ccc1C(C)(C)C (stereo partly specified)
  pIC50: 5.97

## O=C(C1CC1)N1c2ccccc2CCc2ccccc21
  pIC50: 6.08

## CCC(=O)Nc1nnc(Cc2ccc(OC)c(OC)c2)s1
  pIC50: 6.04

## COc1ccccc1C1CCN(C2CCC(NC(=O)/C=C/c3ccc(C(F)(F)F)cc3F)CC2)CC1 (stereo unspecified)
  pIC50: 6.00

## COC(=O)c1cc(OC)c(OC)cc1NC(=O)NC12CC3CC(CC(C3)C1)C2
  pIC50: 6.06

## FC(F)(F)c1cccc(CNC2CCN(CC3CCCCC3)CC2)c1
  pIC50: 6.24

## COc1cc2nc(N3CCC(CNC(=O)c4ccc(-c5ccc(C#N)cc5)cc4)CC3)nc(N)c2cc1OC
  pIC50: 6.10

## Cn1nccc1C(=O)NCCNCc1ccc(-c2ccc(-c3nc4ccc(C(F)(F)F)cc4[nH]3)s2)cc1
  pIC50: 6.72

## c1ccc(Oc2ccc(Nc3ccnc(Nc4cccc(CNCCCN5CCOCC5)c4)n3)cc2)cc1
  pIC50: 5.98

## CC(C)(C)C(Cn1ccnc1)NCc1cn[nH]c1-c1ccc(-c2ccccc2)cc1 (stereo unspecified)
  pIC50: 5.97

## COc1cccc(Nc2c(C(N)=O)cnc3ccc(-c4ccccc4)cc23)c1
  pIC50: 6.11

## CC(C)(CNCc1ccc(F)c(F)c1)c1nc(-c2ccc(Cl)c(O)c2)c(-c2ccnc(N)n2)[nH]1
  pIC50: 6.13

## Oc1cc(Nc2ccnc3cc(I)ccc23)ccc1F
  pIC50: 6.13

## Cc1cccc2[nH]c(-c3ccc(-c4ccc(NC(=O)Nc5cccc(C#N)c5)cc4)s3)nc12
  pIC50: 6.92

## COc1cccc(CN2CCCN(Cc3cccc(NC(=O)c4ccc(-c5ccccc5)cc4)c3)CC2)c1
  pIC50: 6.62

## COCCCNc1sc(S(=O)(=O)c2ccccc2)nc1S(=O)(=O)c1ccc(Cl)cc1
  pIC50: 6.06

## O=C(Nc1ccc2oc(-c3ccc(Cl)cc3Cl)nc2c1)c1ccc([N+](=O)[O-])o1
  pIC50: 5.96

## OC(CN1CCN(c2cccc(Cl)c2)CC1)C(c1ccccc1)c1ccccc1 (stereo unspecified)
  pIC50: 5.94

## COc1ccc2[nH]cc(C3CCN(CCC4CCN(C(=O)/C=C/c5ccc(Cl)c(Cl)c5)CC4)CC3)c2c1
  pIC50: 6.07

## CCCN(CCC)CCCN(CCCN(CCC)CCC)c1cc(C)nc(Nc2ccc(Cl)cc2)n1
  pIC50: 6.77
